Where “and” joins values, the source holds several entries; their conditions need not be identical. Identical values can stand only once. Toxic doses and inconclusive results are not listed.
Tested on: P388 leukemia ip, CD2F1 mice, survival T/C
Experiment: NCI In Vivo Anticancer Drug Screen. Data for tumor model P388 Leukemia (intraperitoneal) in CD2F1 (CDF1) mice
Details: endpoint: median survival time, higher = longer survival
Method in brief: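 Mice carrying the transplanted tumor received test compound or vehicle. Survival was recorded in each group, and the value is the treated-group measurement divided by that of the vehicle-treated control group.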

[1] = dose: 12.5 mg/kg/injection, schedule: Q01DX009 (ip), vehicle: saline
[2] = dose: 25.0 mg/kg/injection, schedule: Q01DX009 (ip), vehicle: saline
[3] = dose: 50.0 mg/kg/injection, schedule: Q01DX009 (ip), vehicle: saline
[4] = dose: 100.0 mg/kg/injection, schedule: Q01DX009 (ip), vehicle: saline
[5] = dose: 50.0 mg/kg/injection, schedule: Q01DX009 (ip), vehicle: saline with Tween-80
[6] = dose: 100.0 mg/kg/injection, schedule: Q01DX009 (ip), vehicle: saline with Tween-80
[7] = dose: 200.0 mg/kg/injection, schedule: Q01DX009 (ip), vehicle: saline with Tween-80
[8] = dose: 100.0 mg/kg/injection, schedule: Q04DX002 (ip), vehicle: saline
[9] = dose: 200.0 mg/kg/injection, schedule: Q01DX009 (ip), vehicle: saline
[10] = dose: 200.0 mg/kg/injection, schedule: Q04DX002 (ip), vehicle: saline
[11] = dose: 400.0 mg/kg/injection, schedule: Q01DX009 (ip), vehicle: saline
[12] = dose: 12.5 mg/kg/injection, schedule: Q01DX009 (ip), vehicle: saline with Tween-80
[13] = dose: 25.0 mg/kg/injection, schedule: Q01DX009 (ip), vehicle: saline with Tween-80
[14] = dose: 50.0 mg/kg/injection, schedule: Q01DX005 (ip), vehicle: Klucel (hydroxypropylcellulose) (HPC)
[15] = dose: 100.0 mg/kg/injection, schedule: Q01DX005 (ip), vehicle: Klucel (hydroxypropylcellulose) (HPC)
[16] = dose: 200.0 mg/kg/injection, schedule: Q01DX005 (ip), vehicle: Klucel (hydroxypropylcellulose) (HPC)
[17] = dose: 60.0 mg/kg/injection, schedule: Q01DX005 (ip), vehicle: Klucel (hydroxypropylcellulose) (HPC)
[18] = dose: 120.0 mg/kg/injection, schedule: Q01DX005 (ip), vehicle: Klucel (hydroxypropylcellulose) (HPC)
[19] = dose: 6.25 mg/kg/injection, schedule: Q01DX009 (ip), vehicle: saline with Tween-80
[20] = dose: 400.0 mg/kg/injection, schedule: Q04DX002 (ip), vehicle: saline
[21] = dose: 50.0 mg/kg/injection, schedule: Q01DX005 (ip), vehicle: saline with Tween-80
[22] = dose: 100.0 mg/kg/injection, schedule: Q01DX005 (ip), vehicle: saline with Tween-80

CCCCCCCCCCOC(=O)CC(C)=O.CCCCCCCCCCOC(=O)CC(C)=O.[Ni+2]
T/C [1]: 98 % of control
T/C [2]: 100 % of control
T/C [3]: 98 % of control and 91 % of control
T/C [4]: 86 % of control

CN1c2ccccc2SC12C(=O)N(c1ccccc1)C(=O)N2c1ccccc1 (stereo unspecified)
T/C [5]: 103 % of control
T/C [6]: 100 % of control
T/C [7]: 103 % of control

CCNc1nc(N)nc(N)n1
T/C [3]: 102 % of control and 103 % of control and 104 % of control
T/C (dose: 50.0 mg/kg/injection, schedule: Q04DX002 (ip), vehicle: saline): 107 % of control
T/C [4]: 100 % of control and 102 % of control and 112 % of control
T/C [8]: 98 % of control
T/C [9]: 100 % of control and 110 % of control and 120 % of control
T/C [10]: 98 % of control
T/C [11]: 102 % of control and 110 % of control

CC(=O)Nc1ccc(OCC(O)CNC(C)C)c(C(C)=O)c1 (stereo unspecified)
T/C [3]: 101 % of control
T/C [4]: 92 % of control
T/C [9]: 97 % of control

CCOc1ccc(C(C#N)N(C)C)cc1OCC (stereo unspecified)
T/C [12]: 105 % of control
T/C [13]: 100 % of control
T/C [5]: 86 % of control and 92 % of control

C=C1C(=O)C23C(OC(=O)CCCCCCCCCCCCC)C1CCC2C12COC3(O)C(O)C1C(C)(C)CCC2O (stereo unspecified)
T/C (dose: 3.75 mg/kg/injection, schedule: Q01DX009 (ip), vehicle: saline with Tween-80): 104 % of control
T/C (dose: 7.5 mg/kg/injection, schedule: Q01DX009 (ip), vehicle: saline with Tween-80): 109 % of control
T/C (dose: 15.0 mg/kg/injection, schedule: Q01DX009 (ip), vehicle: saline with Tween-80): 112 % of control

Cc1cccc(Oc2cnc(=O)[nH]c2)c1
T/C [5]: 100 % of control
T/C [6]: 93 % of control
T/C [7]: 99 % of control

O=C(COc1cccc2c(=O)cc(-c3ccccc3)oc12)OCCN1CCOCC1
T/C [14]: 98 % of control
T/C [15]: 104 % of control
T/C [16]: 91 % of control

COc1cc2c(c(OC)c1OC)-c1ccc(OC)c(=O)cc1[C@@H](NC=O)CC2
T/C (dose: 0.25 mg/kg/injection, schedule: Q01DX009 (ip), vehicle: saline): 117 % of control

COc1ccc(C(c2cc3c(cc2O)OCO3)N2CCOCC2)c(OC)c1 (stereo unspecified)
T/C [17]: 101 % of control
T/C [18]: 99 % of control
T/C (dose: 240.0 mg/kg/injection, schedule: Q01DX005 (ip), vehicle: Klucel (hydroxypropylcellulose) (HPC)): 110 % of control

COC(=O)c1nc(-c2ccc3c(n2)C(=O)C(N)=C(OC)C3=O)c(N)c(-c2ccc(OC)c(OC)c2O)c1C
T/C (dose: 1.5 mg/kg/injection, schedule: Q01DX009 (ip), vehicle: saline with Tween-80): 100 % of control
T/C (dose: 3.0 mg/kg/injection, schedule: Q01DX009 (ip), vehicle: saline with Tween-80): 118 % of control
T/C (dose: 6.0 mg/kg/injection, schedule: Q01DX009 (ip), vehicle: saline with Tween-80): 122 % of control
T/C [19]: 150 % of control
T/C (dose: 66.0 mg/kg/injection, schedule: Q04DX003 (ip), vehicle: saline with Tween-80): 109 % of control

CCCCCCCCCCCCCCCC(=O)N(C/C=C/CN(CCCN(C)C)C(=O)CCCCCCCCCCCCCCC)CCCN(C)C
T/C [19]: 100 % of control
T/C [12]: 90 % of control
T/C [13]: 90 % of control

Cc1cnc(N)c(S(=O)(=O)O)c1
T/C [2]: 86 % of control
T/C [3]: 88 % of control

CCCNc1nc(C)nc2[nH]c(Cc3ccccc3)c(C)c12
T/C [14]: 97 % of control
T/C [15]: 100 % of control
T/C [16]: 100 % of control

CC(=O)C(=N/O)/C(C)=N/NC(=O)c1ccncc1
T/C [8]: 106 % of control
T/C [10]: 103 % of control
T/C [20]: 102 % of control

CCC1OC(/C(C)=C/C(C)/C=C/C2C(C)C2/C=C/C2OC(CC(=O)O)CC(O)C2O)CC=C1C (stereo unspecified)
T/C (dose: 16.82 mg/kg/injection, schedule: Q01DX009 (ip), vehicle: saline): 100 % of control
T/C (dose: 33.65 mg/kg/injection, schedule: Q01DX009 (ip), vehicle: saline): 92 % of control
T/C (dose: 67.3 mg/kg/injection, schedule: Q01DX009 (ip), vehicle: saline): 94 % of control

CN(C)P(N)(N)=O
T/C [4]: 105 % of control
T/C [9]: 95 % of control
T/C [11]: 100 % of control

CC#CC#CC#C/C=C\CCC(=O)CC
T/C (dose: 12.5 mg/kg/injection, schedule: Q01DX009 (ip), vehicle: Klucel (hydroxypropylcellulose) (HPC)): 95 % of control
T/C (dose: 25.0 mg/kg/injection, schedule: Q01DX009 (ip), vehicle: Klucel (hydroxypropylcellulose) (HPC)): 95 % of control
T/C (dose: 50.0 mg/kg/injection, schedule: Q01DX009 (ip), vehicle: Klucel (hydroxypropylcellulose) (HPC)): 95 % of control
T/C (dose: 100.0 mg/kg/injection, schedule: Q01DX009 (ip), vehicle: Klucel (hydroxypropylcellulose) (HPC)): 100 % of control

CC(C)C(NC(=O)OCC[P+](c1ccccc1)(c1ccccc1)c1ccccc1)C(=O)O (stereo unspecified)
T/C [5]: 116 % of control
T/C [6]: 103 % of control
T/C [7]: 91 % of control

NC(=O)c1ccc2c(=O)c(C(=O)O)c[nH]c2c1
T/C [19]: 92 % of control
T/C [12]: 95 % of control
T/C [13]: 94 % of control

O=C(NN(Cc1ccccc1)S(=O)(=O)c1ccccc1)c1ccccc1
T/C [21]: 101 % of control
T/C [22]: 107 % of control
T/C (dose: 200.0 mg/kg/injection, schedule: Q01DX005 (ip), vehicle: saline with Tween-80): 103 % of control

CCOC(=O)N1C=CN(C(=O)OCC)C1c1nccn1C(=O)OCC
T/C [5]: 100 % of control
T/C [6]: 96 % of control
T/C [7]: 105 % of control

CCN(CC)CCNC(=O)c1ccc2c(c1O)C(=O)c1ccccc1C2=O
T/C [21]: 106 % of control
T/C [22]: 106 % of control

CNCCCC1c2ccccc2C=Cc2ccccc21
T/C (dose: 6.25 mg/kg/injection, schedule: Q01DX009 (ip), vehicle: saline): 100 % of control
T/C [1]: 90 % of control

O=C(/C=C\c1ccccc1)c1ccccc1
T/C [8]: 112 % of control
T/C [10]: 110 % of control
T/C [20]: 102 % of control

COc1ccccc1N1CCN(c2nc(NC(=O)c3ccccc3)nn2C)CC1
T/C [17]: 112 % of control
T/C [18]: 87 % of control

C[N+](C)([O-])Cc1ccccc1C[N+](C)(C)[O-]
T/C (dose: 60.0 mg/kg/injection, schedule: Q01DX005 (ip), vehicle: saline): 102 % of control
T/C (dose: 120.0 mg/kg/injection, schedule: Q01DX005 (ip), vehicle: saline): 110 % of control
T/C (dose: 240.0 mg/kg/injection, schedule: Q01DX005 (ip), vehicle: saline): 112 % of control

CS(=O)CCCN=C=S (stereo unspecified)
T/C (dose: 18.75 mg/kg/injection, schedule: Q01DX009 (ip), vehicle: saline with Tween-80): 111 % of control
T/C (dose: 37.5 mg/kg/injection, schedule: Q01DX009 (ip), vehicle: saline with Tween-80): 110 % of control
T/C (dose: 75.0 mg/kg/injection, schedule: Q01DX009 (ip), vehicle: saline with Tween-80): 111 % of control

CN1CCc2cccc3c2[C@H]1Cc1ccc(O)c(O)c1-3
T/C [14]: 95 % of control
T/C [15]: 92 % of control

CCCCNC(=O)OCc1c(COC(=O)NCCCC)c(-c2ccc(Cl)c(Cl)c2)n2c1CCC2
T/C [13]: 153 % of control and 159 % of control
T/C [5]: 150 % of control and 171 % of control
T/C [7]: 163 % of control
